Residues, ends and D or L forms follow the SMILES beside them. *: point of attachment. Cbz = O=C(OCc1ccccc1)*; CH2F = FC*
Experiments:
Format in all cases: cell-based, human
HeLa-fR cells [1] = assay: RLuc8/fLuc bioluminescence and RLuc8:fLuc ratio in HeLa-fR cells (Dual-Glo); conditions: for RLuc8:fLuc bioluminescent ratio: HeLa-fR cells treated with the stress/cell death inducer alone; for RLuc8:fLuc ratio of STS-treated cells with inhibitor/scavenger: inhibitor 1 hour before 10 μM STS for 24 hours, working concentrations of Table 7
Experimental: To induce cellular stress, HeLa cells were treated with Staurosporine (STS), hydrogen peroxide, or hypoxanthine and xanthine oxidase for 0 to 24 hours at concentrations indicated in Table 7. Stressed and unstressed cells were also incubated with inhibitors that target various intracellular protein degradation/modification pathways. The specific compounds/proteins that were utilized as inhibitors and the respective final working concentrations are also listed in Table 7. Inhibitors were added to cells 1-hr prior to adding inducers of cellular stress and left in the media for the duration of the treatment. Analogous controls were conducted in the absence of stress inducers.
(§1) To induce caspase dependent PCD, cells were treated with staurosporine (STS), Doxorubicin (DOX), or camptothecin (CPT) (Sigma, St. Louis, Mo.) in complete medium at indicated concentrations and time points. To induce caspase-independent PCD, cells were treated with sodium selenite (SSe, MP Biomedicals, Solon, Ohio) or resveratrol (Res, Enzo Life Sciences, Plymouth Meeting, Pa.) in complete medium at indicated concentrations and time points. In studies where allopurinol (Allo, MP Biomedicals) is used as an inhibitor, it was added at a final concentration of 100 μM to cells in complete medium for 1 hour prior to the addition of the death-inducing drugs and remained in the medium throughout the study.
(§2) Unless otherwise noted, bioluminescence assays were performed 24 hours after plating 10,000 HeLa-fR cells/well in a white-walled 96 well tissue culture plate (BD Biosciences, Franklin Lakes, N.J., USA).

caspases 3 and 7 = assay: Caspase-Glo 3/7 assay, HeLa-fR cells
Experimental: (§3) Caspase Activity: PCD was induced (as described above) 24 hours after plating 10,000 cells/well in white-walled 96 well tissue culture plates (BD Biosciences). After indicated treatment times, the Caspase 3/7-Glo Assay (Promega) was performed according to the manufacturer's protocol and bioluminescence measurements were obtained from and Infinite 200 plate reader (Tecan). All values were normalized to controls (i.e. pre-treatment values).

intracellular H2O2 [2] = assay: Intracellular H2O2 by CM-H2DCFDA, MCF7-fR cells; conditions: increasing dosages of resveratrol, 24 hours
MCF7-fR cells [3] = assay: TUNEL assay for DNA fragmentation, MCF7-fR cells; conditions: increasing dosages of resveratrol, 24 hours
Experimental: DNA Fragmentation: PCD was induced (as described above) 24 hours after plating 300,000 cells/well in 6 well tissue culture plates (BD Biosciences). After indicated treatment times, TUNEL assays for DNA fragmentation were performed using the TUNEL/ApoBRDU assay kit (Invitrogen) according to the manufacturer's protocol. Percent DNA fragmentation was determined using flow cytometry on a Guava EasyCyte flow cytometer (Guava Technologies, Hayward, Calif.). Analysis of flow cytometry data was performed using FlowJo software (Treestar, Ashland, Oreg.).

caspase 3/7 = assay: Caspase-Glo 3/7 assay, MCF7-fR cells
Experimental: as §3

MCF7-fR cells [4] = assay: RLuc8:fLuc ratio in MCF7-fR cells (Dual-Glo); conditions: MCF7-fR cells treated with the cell death inducer alone
Experimental: as §1, §2

intracellular H2O2 [5] = assay: Intracellular H2O2 by CM-H2DCFDA, HeLa-fR cells; conditions: STS-treated HeLa-fR cells
Experimental: Catalase and Allopurinol: HeLa-fR cells were plated at a density of 120,000 cells per well of a 12 well tissue culture plate (BD Biosciences). 24 hours later, the cells were incubated with 10 μM CM-H2DCFDA (Invitrogen) for 30 minutes at 37° C. Cells were then treated with PBS (pH 7.4), 50 U/mL catalase or 100 μM allopurinol for one hour. PBS (pH 7.4) or 10 μM STS was subsequently added to the cells, and all compounds remained on the cells for 24 hours. Intracellular H2O2 levels were determined by subjecting the cells to flow cytometry using a Guava EasyCyte (Guava Technologies). Analysis of flow cytometry data was accomplished using FlowJo software (Treestar).

HeLa-fR cells [6] = assay: Western blot of fLuc and RLuc8 protein, HeLa-fR cells; conditions: STS-treated cells pretreated with the inhibitor/scavenger
Experimental: Following indicated culture conditions, HeLa-fR cells were washed 3 times with 1×PBS (pH7.4). Proteins were extracted using RIPA extraction buffer (50 mM Tris HCL, pH 7.4, 1% Triton X-100, 0.25% Na-deoxycholate, 150 mM NaCl, 1 mM EDTA and a Complete Mini Protease Inhibitor Cocktail Tablet (Roche)) at 4° C. for 30 minutes with constant agitation. Total protein concentrations were measured using a BCA assay (Pierce, Rockford, Ill., USA). […] Proteins separated by electrophoresis were transferred to nitrocellulose membranes in 1× Transfer Buffer (Bio-Rad) at 15V for 30 minutes. Membranes were blocked in Blocking Buffer for Fluorescent Western Blotting (Rockland Immunochemicals, Gilbertsville, Pa., USA) for 60 minutes. The membranes were incubated with anti-fLuc (Sigma), anti-rLuc (Millipore, Billerica, Mass.) or anti-β-actin (Abcam, Cambridge, Mass.) primary antibodies in blocking buffer overnight. […] The fluorescent signal from the membranes was imaged using the Odyssey Infrared Imaging System (Li-Cor Biosciences, Lincoln, Nebr., USA).

With `CC[C@@]1(O)C(=O)OCc2c1cc1n(c2=O)Cc2cc3ccccc3nc2-1` [camptothecin] the “RLuc8:fLuc bioluminescent ratio” value (HeLa-fR cells [1]) was “dose- and time-dependent increase” and the “caspase activity / caspase dependence of cell death” value (caspases 3 and 7) was “caspase-dependent”.

`COc1cccc2c1C(=O)c1c(O)c3c(c(O)c1C2=O)C[C@@](O)(C(=O)CO)C[C@@H]3O[C@H]1C[C@H](N)[C@H](O)[C@H](C)O1` [doxorubicin, Doxorubicin] was tested, and the “RLuc8:fLuc bioluminescent ratio” value (HeLa-fR cells [1]) was “dose- and time-dependent increase” and the “caspase activity / caspase dependence of cell death” value (caspases 3 and 7) was “caspase-dependent”.

`CC[C@H](C)[C@H](NC(=O)[C@H]([C@@H](C)CC)N(C)C(C)=O)C(=O)N[C@H](C(=O)N[C@@H](CC(C)C)C(=O)[C@@]1(C)CO1)[C@@H](C)O` [epoxomicin] was tested, and the “RLuc8:fLuc ratio of STS-treated cells with inhibitor/scavenger” value (“RLuc8:fLuc ratio … with inhibitor/scavenger” for short) (HeLa-fR cells [1]) was “increase in the RLuc8:fLuc ratio”.

`CC(=O)N[C@@H](CSC(=O)[C@]1([C@@H](O)C(C)C)NC(=O)[C@H](C)[C@@H]1O)C(=O)O` [lactacystin] was tested, and the “RLuc8:fLuc ratio … with inhibitor/scavenger” value (HeLa-fR cells [1]) was “increase in the RLuc8:fLuc ratio”.

With `OC[C@@H](O)[C@@H](O)[C@H](O)[C@H](O)CO` [mannitol] the “RLuc8:fLuc ratio … with inhibitor/scavenger” value (HeLa-fR cells [1]) was “did not reduce the Rluc8:fLuc ratio”.

`Oc1ccc(C=Cc2cc(O)cc(O)c2)cc1` [resveratrol] was tested, and the “intracellular H2O2” value (intracellular H2O2 [2]) was “increased”, the DNA fragmentation levels (MCF7-fR cells [3]) was “increased” and the “caspase 3/7 activity / caspase dependence of cell death” value (caspase 3/7) was “remained inactive”. For the same compound, the “RLuc8:fLuc ratio” value (MCF7-fR cells [4]) was “increased”.

In the case of `COC(=O)C[C@H](NC(=O)[C@H](C)NC(=O)[C@@H](NC(=O)OCc1ccccc1)C(C)C)C(=O)CF` [z-vad-fmk] (Cbz-Val-Ala-Asp(OMe)-CH2F), the “RLuc8:fLuc ratio … with inhibitor/scavenger” value (HeLa-fR cells [1]) is reported as “none of these inhibitors significantly affected”.

In the case of MnTMPyP, the “RLuc8:fLuc ratio … with inhibitor/scavenger” value (HeLa-fR cells [1]) is reported as “none of the superoxide scavengers significantly reduced”.

Pepstatin A was tested, and the “RLuc8:fLuc ratio … with inhibitor/scavenger” value (HeLa-fR cells [1]) was “none of these inhibitors significantly affected”.

For catalase, the “RLuc8:fLuc ratio … with inhibitor/scavenger” value (HeLa-fR cells [1]) was “significant reduction (p<0.01)”, the “RLuc8:fLuc ratio, increasing doses of inhibitor/scavenger” value (HeLa-fR cells [1]; pretreated 1 hour prior to 10 μM STS, 24 hr) was “reducing the Rluc8:fLuc ratio, in a dose-dependent manner” and the “intracellular H2O2 (CM-H2DCFDA fluorescence) with inhibitor/scavenger” value (intracellular H2O2 [5]) was “decrease in CM-H2DCFDA fluorescence”. The “fLuc protein level vs STS without inhibitor” value (HeLa-fR cells [6]) was “higher levels of fLuc protein”.

Source: patent US20110081298A1, “RATIOMETRIC BIOLUMINESCENT SENSOR FOR IMAGINING OXIDATIVE STRESS” (priority 2009, published 2011)
